How the values were obtained:
[1] = biological target: Sigma non-opioid intracellular receptor 1 (Cavia porcellus) (UniProt Q60492); assay: Ability to displace [3H](+)-pentazocine from Sigma opioid receptor type 1 of guinea pig brain
[2] = biological target: Sigma-2 receptor (TMEM97) (Rattus norvegicus); assay: Ability to displace [3H]ditolylguanidine in the presence of 100 nM (+)-pentazocine from Sigma opioid receptor type 2 of rat liver

Chain of Sigma non-opioid intracellular receptor 1 (Cavia porcellus) (Q60492 whole entry, looked up): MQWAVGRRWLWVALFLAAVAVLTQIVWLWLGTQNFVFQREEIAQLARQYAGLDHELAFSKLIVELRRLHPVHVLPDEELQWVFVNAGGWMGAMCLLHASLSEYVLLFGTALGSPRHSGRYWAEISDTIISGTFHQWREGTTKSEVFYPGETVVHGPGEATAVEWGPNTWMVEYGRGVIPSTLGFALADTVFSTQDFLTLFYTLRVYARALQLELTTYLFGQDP

Ki [1] [µM]	Ki [2] [µM]	Structure (SMILES)
0.00218	–	N#CC1OC2(CCN(Cc3ccccc3)CC2)c2ccccc21 (configuration not stated) [1'-benzylspiro[1,3-dihydroisobenzofuran-1,4'-(hexahydropyridine)]-3-carbonitrile]
0.00216	1.66	N#CCC1OC2(CCN(Cc3ccccc3)CC2)c2ccccc21 (configuration not stated) [1'-benzylspiro[1,3-dihydroisobenzofuran-1,4'-(hexahydropyridine)]-3-ylmethyl cyanide]
0.00716	2.09	OCC1Cc2ccccc2C2(CCN(Cc3ccccc3)CC2)O1 (configuration not stated) [1'-benzylspiro[3,4-dihydro-1H-isochromene-1,4'-(hexahydropyridine)]-3-ylmethanol]
0.0159	4.7	N#CCC1Cc2ccccc2C2(CCN(Cc3ccccc3)CC2)O1 (configuration not stated) [1'-benzylspiro[3,4-dihydro-1H-isochromene-1,4'-(hexahydropyridine)]-3-ylmethyl cyanide]
0.148	4.36	CNCCC1Cc2ccccc2C2(CCN(Cc3ccccc3)CC2)O1 (configuration not stated) [1N-methyl-2-[1'-benzylspiro[3,4-dihydro-1H-isochromene-1,4'-(hexahydropyridine)]-3-yl]-1-ethanamine]
0.17	–	CNC(=O)CC1Cc2ccccc2C2(CCN(Cc3ccccc3)CC2)O1 (configuration not stated) [1N-methyl-2-[1'-benzylspiro[3,4-dihydro-1H-isochromene-1,4'-(hexahydropyridine)]-3-yl]acetamide]
0.0127	8.46	OCCC1Cc2ccccc2C2(CCN(Cc3ccccc3)CC2)O1 (configuration not stated) [2-[1'-benzylspiro[3,4-dihydro-1H-isochromene-1,4'-(hexahydropyridine)]-3-yl]-1-ethanol]
0.0551	9.91	O=CCC1Cc2ccccc2C2(CCN(Cc3ccccc3)CC2)O1 (configuration not stated) [2-[1'-benzylspiro[3,4-dihydro-1H-isochromene-1,4'-(hexahydropyridine)]-3-yl]acetaldehyde]
0.00895	7.13	CCOC(=O)C1OC2(CCN(Cc3ccccc3)CC2)c2ccccc21 (configuration not stated) [ethyl 1'-benzylspiro[1,3-dihydroisobenzofuran-1,4'-(hexahydropyridine)]-3-carboxylate]
0.00933	10.5	CCOC(=O)C1Cc2ccccc2C2(CCN(Cc3ccccc3)CC2)O1 (configuration not stated) [ethyl 1'-benzylspiro[3,4-dihydro-1H-isochromene-1,4'-(hexahydropyridine)]-3-carboxylate]
0.0151	6.77	CCOC(=O)CC1OC2(CCN(Cc3ccccc3)CC2)c2ccccc21 (configuration not stated) [ethyl 2-[1'-benzylspiro[1,3-dihydroisobenzofuran-1,4'-(hexahydropyridine)]-3-yl]acetate]
0.183	22.7	CCOC(=O)CC1Cc2ccccc2C2(CCN(Cc3ccccc3)CC2)O1 (configuration not stated) [ethyl 2-[1'-benzylspiro[3,4-dihydro-1H-isochromene-1,4'-(hexahydropyridine)]-3-yl]acetate]

Reference: BindingDB's records for doi:10.1021/jm020889p (2002)
